Assay results from ChEMBL document CHEMBL2401728, “An unexpected Dimroth rearrangement leading to annelated thieno[3,2-d][1,2,3]triazolo[1,5-a]pyrimidines with potent antitumor activity” (Eur J Med Chem, 2013).

Tests used:
Format in all cases: functional
HOP-92 = assay: Cytotoxicity against human HOP92 cells assessed as cellular growth at 0.1 uM after 48 hrs by SRB assay relative to control
[1] = Cytotoxicity against human EKVX cells assessed as cellular growth at 10 uM after 48 hrs by SRB assay relative to control
UACC-257 = assay: Cytotoxicity against human UACC257 cells assessed as cellular growth at 1 uM after 48 hrs by SRB assay relative to control
SNB-19 [2] = assay: Cytotoxicity against human SNB19 cells after 48 hrs by SRB assay; conditions: SNB-19, 48 h
SNB-19 [3] = assay: Cytotoxicity against human SNB19 cells assessed as cellular growth at 100 uM after 48 hrs by SRB assay relative to control
SF-539 = assay: Cytotoxicity against human SF539 cells assessed as cellular growth at 0.01 uM after 48 hrs by SRB assay relative to control
SK-MEL-28 = assay: Cytotoxicity against human SK-MEL-28 cells after 48 hrs by SRB assay; conditions: SK-MEL-28, 48 h
UACC-62 [4] = assay: Cytotoxicity against human UACC62 cells after 48 hrs by SRB assay; conditions: UACC-62, 48 h
LOX IMVI = assay: Cytotoxicity against human LOXIMVI cells assessed as cellular growth at 0.01 uM after 48 hrs by SRB assay relative to control
NCI-H322M = assay: Cytotoxicity against human NCI-H322M cells after 48 hrs by SRB assay
HCT-116 = assay: Cytotoxicity against human HCT116 cells assessed as cellular growth at 1 uM after 48 hrs by SRB assay relative to control
MDA-MB-435 = assay: Cytotoxicity against human MDA-MB-435 cells assessed as cellular growth at 0.01 uM after 48 hrs by SRB assay relative to control
TK-10 = assay: Cytotoxicity against human TK10 cells assessed as cellular growth at 100 uM after 48 hrs by SRB assay relative to control
SN12C = assay: Cytotoxicity against human SN12C cells assessed as cellular growth at 0.01 uM after 48 hrs by SRB assay relative to control
UACC-62 [5] = assay: Cytotoxicity against human UACC62 cells assessed as cellular growth at 0.01 uM after 48 hrs by SRB assay relative to control
NCI-H226 = assay: Cytotoxicity against human NCI-H226 cells assessed as cellular growth at 100 uM after 48 hrs by SRB assay relative to control
MCF7 = assay: Cytotoxicity against human MCF7 cells assessed as cellular growth at 1 uM after 48 hrs by SRB assay relative to control
Hs-578T = assay: Cytotoxicity against human Hs578T cells after 48 hrs by SRB assay
HOP-62 = assay: Cytotoxicity against human HOP62 cells after 48 hrs by SRB assay; conditions: HOP-62, 48 h
OVCAR-8 [6] = assay: Cytotoxicity against human OVCAR8 cells assessed as cellular growth at 100 uM after 48 hrs by SRB assay relative to control
K562 [7] = assay: Cytotoxicity against human K562 cells assessed as cellular growth at 0.1 uM after 48 hrs by SRB assay relative to control
SF-295 = assay: Cytotoxicity against human SF295 cells assessed as cellular growth at 100 uM after 48 hrs by SRB assay relative to control
BT-549 [8] = assay: Cytotoxicity against human BT549 cells assessed as cellular growth at 0.01 uM after 48 hrs by SRB assay relative to control
K562 [9] = assay: Cytotoxicity against human K562 cells after 48 hrs by SRB assay; conditions: K562, 48 h
BT-549 [10] = assay: Cytotoxicity against human BT549 cells assessed as cellular growth at 0.1 uM after 48 hrs by SRB assay relative to control
SK-OV-3 [11] = assay: Cytotoxicity against human SKOV3 cells after 48 hrs by SRB assay; conditions: SK-OV-3, 48 h
OVCAR-3 = assay: Cytotoxicity against human OVCAR3 cells assessed as cellular growth at 1 uM after 48 hrs by SRB assay relative to control
SK-OV-3 [12] = assay: Cytotoxicity against human SKOV3 cells assessed as cellular growth at 0.1 uM after 48 hrs by SRB assay relative to control
T47D = assay: Cytotoxicity against human T47D cells assessed as cellular growth at 100 uM after 48 hrs by SRB assay relative to control
OVCAR-8 [13] = assay: Cytotoxicity against human OVCAR8 cells assessed as cellular growth at 0.1 uM after 48 hrs by SRB assay relative to control
HCT-15 = assay: Cytotoxicity against human HCT15 cells after 48 hrs by SRB assay; conditions: HCT-15, 48 h
UO-31 = assay: Cytotoxicity against human UO31 cells assessed as cellular growth at 0.1 uM after 48 hrs by SRB assay relative to control
DU-145 = assay: Cytotoxicity against human DU145 cells assessed as cellular growth at 0.01 uM after 48 hrs by SRB assay relative to control
[14] = read-out: LC50 (the source's name)
[15] = read-out: pLC50 (the source's name) (converted)

CN1CCN(CCCn2c3c(sc4ncccc43)c(=O)n3nnc(-c4ccccc4)c23)CC1
Activity (HOP-92): 92% | Activity [1]: -43% | Activity (UACC-257): 97% | GI50 (SNB-19 [2]; read-out: GI50): 2.5 µM | CC50 (SNB-19 [2]; [14]): > 100 µM | TGI (SNB-19 [2]; read-out: TGI): 5.62 µM | GI50 (SNB-19 [2]; read-out: pGI50 (converted)): 2.51 µM | CC50 (SNB-19 [2]; [15]): > 100 µM | TGI (SNB-19 [2]; read-out: pTGI (converted)): 5.62 µM | Activity (SNB-19 [3]): -42% | Activity (SF-539): 99% | GI50 (SK-MEL-28; read-out: GI50): 15.8 µM | CC50 (SK-MEL-28; [14]): 55.5 µM | TGI (SK-MEL-28; read-out: TGI): 29.6 µM | GI50 (SK-MEL-28; read-out: pGI50 (converted)): 15.8 µM | CC50 (SK-MEL-28; [15]): 55 µM | TGI (SK-MEL-28; read-out: pTGI (converted)): 29.5 µM | GI50 (UACC-62 [4]; read-out: GI50): 16.6 µM | CC50 (UACC-62 [4]; [14]): 71 µM | TGI (UACC-62 [4]; read-out: TGI): 34.3 µM | GI50 (UACC-62 [4]; read-out: pGI50 (converted)): 16.6 µM | CC50 (UACC-62 [4]; [15]): 70.8 µM | TGI (UACC-62 [4]; read-out: pTGI (converted)): 34.7 µM | Activity (LOX IMVI): 93% | GI50 (NCI-H322M; read-out: GI50): 1.74 µM | CC50 (NCI-H322M; [14]): 6.96 µM | TGI (NCI-H322M; read-out: TGI): 3.48 µM | GI50 (NCI-H322M; read-out: pGI50 (converted)): 1.74 µM | CC50 (NCI-H322M; [15]): 6.92 µM | TGI (NCI-H322M; read-out: pTGI (converted)): 3.47 µM | Activity (HCT-116): 88% | Activity (MDA-MB-435): 101% | Activity (TK-10): -47% | Activity (SN12C): 97% | Activity (UACC-62 [5]): 91% | Activity (NCI-H226): -79% | Activity (MCF7): 82% | GI50 (Hs-578T; read-out: GI50): 14.9 µM | CC50 (Hs-578T; [14]): > 100 µM | TGI (Hs-578T; read-out: TGI): 41.7 µM | GI50 (Hs-578T; read-out: pGI50 (converted)): 14.8 µM | CC50 (Hs-578T; read-out: pLC50 (converted)): > 100 µM | TGI (Hs-578T; read-out: pTGI (converted)): 41.7 µM | GI50 (HOP-62; read-out: GI50): 1.78 µM | CC50 (HOP-62; [14]): 6.11 µM | TGI (HOP-62; read-out: TGI): 3.3 µM | GI50 (HOP-62; read-out: pGI50 (converted)): 1.78 µM | CC50 (HOP-62; [15]): 6.17 µM | TGI (HOP-62; read-out: pTGI (converted)): 3.31 µM | Activity (OVCAR-8 [6]): -15% | Activity (K562 [7]): 98% | Activity (SF-295): -84% | Activity (BT-549 [8]): 99% | GI50 (K562 [9]; read-out: GI50): 1.91 µM | CC50 (K562 [9]; [14]): > 100 µM | TGI (K562 [9]; read-out: TGI): 4.74 µM | GI50 (K562 [9]; read-out: pGI50 (converted)): 1.91 µM | CC50 (K562 [9]; [15]): > 100 µM | TGI (K562 [9]; read-out: pTGI (converted)): 4.79 µM | Activity (BT-549 [10]): 98% | GI50 (SK-OV-3 [11]; read-out: GI50): 18.7 µM | CC50 (SK-OV-3 [11]; [14]): 59.6 µM | TGI (SK-OV-3 [11]; read-out: TGI): 33.4 µM | GI50 (SK-OV-3 [11]; read-out: pGI50 (converted)): 18.6 µM | CC50 (SK-OV-3 [11]; [15]): 60.3 µM | TGI (SK-OV-3 [11]; read-out: pTGI (converted)): 33.1 µM | Activity (OVCAR-3): 96% | Activity (SK-OV-3 [12]): 94% | Activity (T47D): -76% | Activity (OVCAR-8 [13]): 94% | GI50 (HCT-15; read-out: GI50): 1.82 µM | CC50 (HCT-15; [14]): 8.26 µM | TGI (HCT-15; read-out: TGI): 3.88 µM | GI50 (HCT-15; read-out: pGI50 (converted)): 1.82 µM | CC50 (HCT-15; [15]): 8.32 µM | TGI (HCT-15; read-out: pTGI (converted)): 3.89 µM | Activity (UO-31): 53% | Activity (DU-145): 97%
